In ChEMBL document CHEMBL1149176, “(2R)-2-ethylchromane-2-carboxylic acids: discovery of novel PPARalpha/gamma dual agonists as antihyperglycemic and hypolipidemic agents” (J Med Chem, 2004):

What was measured:
[1] = target: T1, Peroxisome proliferator-activated receptor gamma (Homo sapiens, UniProt P37231); assay: In vitro binding affinity for human peroxisome proliferator activated receptor gamma using scintillation proximity assay (SPA)
T1 sequence (P37231 whole entry): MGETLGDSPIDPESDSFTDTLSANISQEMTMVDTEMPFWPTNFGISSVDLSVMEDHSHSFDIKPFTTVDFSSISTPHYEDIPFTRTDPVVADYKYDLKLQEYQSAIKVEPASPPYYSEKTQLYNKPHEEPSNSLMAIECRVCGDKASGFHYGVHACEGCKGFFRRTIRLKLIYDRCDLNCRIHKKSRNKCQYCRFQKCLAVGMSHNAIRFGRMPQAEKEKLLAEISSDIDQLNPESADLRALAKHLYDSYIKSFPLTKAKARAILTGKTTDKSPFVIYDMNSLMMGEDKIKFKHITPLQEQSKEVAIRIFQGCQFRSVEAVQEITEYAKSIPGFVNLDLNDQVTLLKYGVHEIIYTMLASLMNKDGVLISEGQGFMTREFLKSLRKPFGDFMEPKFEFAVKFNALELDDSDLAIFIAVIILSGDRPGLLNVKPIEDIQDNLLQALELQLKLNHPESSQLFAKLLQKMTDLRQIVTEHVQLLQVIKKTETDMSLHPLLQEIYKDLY

[2] = target: T2, Peroxisome proliferator-activated receptor alpha (Homo sapiens, UniProt Q07869); assay: In vitro potency of PPAR gene activation against human Peroxisome proliferator activated receptor alpha using chimeric Gal4-hPPAR transactivation assay (TA)
T2 sequence (Q07869 whole entry): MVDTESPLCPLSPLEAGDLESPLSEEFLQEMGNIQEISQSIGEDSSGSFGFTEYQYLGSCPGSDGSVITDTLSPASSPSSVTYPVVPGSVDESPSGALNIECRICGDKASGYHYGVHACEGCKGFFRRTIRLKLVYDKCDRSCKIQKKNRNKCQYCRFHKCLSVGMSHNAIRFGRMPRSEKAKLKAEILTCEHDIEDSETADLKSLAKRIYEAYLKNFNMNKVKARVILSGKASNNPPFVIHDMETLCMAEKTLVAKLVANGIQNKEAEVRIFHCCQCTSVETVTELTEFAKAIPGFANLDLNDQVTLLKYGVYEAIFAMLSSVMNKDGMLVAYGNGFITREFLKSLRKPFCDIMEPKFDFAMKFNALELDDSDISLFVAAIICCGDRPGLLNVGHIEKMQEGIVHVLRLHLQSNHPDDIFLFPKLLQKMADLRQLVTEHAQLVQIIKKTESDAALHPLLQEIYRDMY

[3] = target: T2, Peroxisome proliferator-activated receptor alpha
Description: In vitro binding affinity for human peroxisome proliferator activated receptor alpha using scintillation proximity assay (SPA)

[4] = target: T1, Peroxisome proliferator-activated receptor gamma
Description: In vitro potency of PPAR gene activation against human PPAR gamma receptor using chimeric Gal4-hPPAR transactivation assay (TA)

[5] = target: T3, Peroxisome proliferator-activated receptor delta (Homo sapiens, UniProt Q03181)
T3 sequence (Q03181 whole entry): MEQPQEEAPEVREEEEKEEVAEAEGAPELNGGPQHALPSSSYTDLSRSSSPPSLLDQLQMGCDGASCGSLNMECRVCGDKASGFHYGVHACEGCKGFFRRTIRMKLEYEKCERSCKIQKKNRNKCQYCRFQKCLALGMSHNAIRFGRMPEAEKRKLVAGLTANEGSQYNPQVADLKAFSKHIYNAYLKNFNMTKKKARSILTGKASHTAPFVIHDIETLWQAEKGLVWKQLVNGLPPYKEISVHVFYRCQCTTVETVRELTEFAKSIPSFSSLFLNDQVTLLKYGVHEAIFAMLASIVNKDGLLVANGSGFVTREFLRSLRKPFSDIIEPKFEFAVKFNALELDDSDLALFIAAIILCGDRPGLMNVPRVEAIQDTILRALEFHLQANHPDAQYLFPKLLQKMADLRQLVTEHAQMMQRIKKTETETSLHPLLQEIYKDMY

[6] = target: T2, Peroxisome proliferator-activated receptor alpha; assay: In vitro transcriptional activation by human PPAR alpha Gal4 chimera; Not active
[7] = target: T1, Peroxisome proliferator-activated receptor gamma; assay: (§1) In vitro transcriptional activation by human PPAR gamma Gal4 chimera
[8] = Bioavailability in rat (dose 2.0 mg/kg p.o.); type: ADME, organism-based; settings: in vivo, po
Canis familiaris [9] = assay: Dose-normalized area under curve in dog (p.o.) at 2.0 mpk; type: ADME, organism-based, Canis lupus familiaris; settings: in vivo, po, 2 mg/kg
Canis familiaris [10] = assay: In vivo percent change in serum cholesterol in dogs at 3 mg/kg; type: functional, Canis lupus familiaris
[11] = Lower clearance in monkey (i.v.) at 0.5 mpk; type: ADME, organism-based; settings: cercopithecidae, in vivo, iv, 0.5 mg/kg
Cricetinae gen. sp. [12] = assay: In vivo percent change in triglyceride in hamsters at 3 mg/kg; type: functional, Cricetulus griseus
Cricetinae gen. sp. [13] = assay: In vivo triglyceride in hamsters at 3 mg/kg; type: functional, Cricetulus griseus
Cricetinae gen. sp. [14] = assay: In vivo percent change in serum cholesterol in hamsters at 10 mg/kg; type: functional, Cricetulus griseus
Cricetinae gen. sp. [15] = assay: In vivo percent change in triglyceride in hamsters at 10 mg/kg; type: functional, Cricetulus griseus
Mesocricetus auratus = assay: In vivo serum cholesterol in Golden Syrian hamsters at 3 mg/kg
[16] = Bioavailability in dog (p.o.) at 2.0 mpk; type: ADME, organism-based, Canis lupus familiaris; settings: in vivo, po, 2 mg/kg
Canis familiaris [17] = assay: Lower clearance in dog (i.v.) at 0.5 mpk; type: ADME, organism-based, Canis lupus familiaris; settings: in vivo, iv, 0.5 mg/kg
Rattus norvegicus [18] = assay: Lower clearance in rat (i.v.) at 0.5 mpk; type: ADME, organism-based; settings: in vivo, iv, 0.5 mg/kg
Cricetinae gen. sp. [19] = assay: In vivo percent change in serum cholesterol in hamsters at 3 mg/kg; type: functional, Cricetulus griseus
Canis familiaris [20] = assay: In vivo percent change in serum cholesterol in dogs at 1 mg/kg; type: functional, Canis lupus familiaris
[21] = as §1; set-up: species or system Canis lupus familiaris
Rattus norvegicus [22] = assay: Dose-normalized area under curve in rat (i.v.) at 0.5 mpk; type: ADME, organism-based; settings: in vivo, iv, 0.5 mg/kg
[23] = Longer half-life in rat (p.o.) at 2.0 mpk; type: ADME, organism-based; settings: in vivo, po, 2 mg/kg
[24] = Longer half-life in rat (i.v.) at 0.5 mpk; type: ADME, organism-based; settings: in vivo, iv, 0.5 mg/kg
Cricetinae gen. sp. [25] = assay: In vivo serum cholesterol in hamsters at 10 mg/kg; type: functional, Cricetulus griseus
Cricetinae gen. sp. [26] = assay: In vivo triglyceride in hamsters at 10 mg/kg; type: functional, Cricetulus griseus
Rattus norvegicus [27] = assay: Dose-normalized area under curve in rat (p.o.) at 2.0 mpk; type: ADME, organism-based; settings: in vivo, po, 2 mg/kg
[28] = Longer half-life in monkey (i.v.) at 0.5 mpk; type: ADME, organism-based; settings: cercopithecidae, in vivo, iv, 0.5 mg/kg
[29] = target: T4, Peroxisome proliferator-activated receptor gamma (Mus musculus, UniProt P37238); assay: In vitro transcriptional activation by PPAR gamma
T4 sequence (P37238 whole entry): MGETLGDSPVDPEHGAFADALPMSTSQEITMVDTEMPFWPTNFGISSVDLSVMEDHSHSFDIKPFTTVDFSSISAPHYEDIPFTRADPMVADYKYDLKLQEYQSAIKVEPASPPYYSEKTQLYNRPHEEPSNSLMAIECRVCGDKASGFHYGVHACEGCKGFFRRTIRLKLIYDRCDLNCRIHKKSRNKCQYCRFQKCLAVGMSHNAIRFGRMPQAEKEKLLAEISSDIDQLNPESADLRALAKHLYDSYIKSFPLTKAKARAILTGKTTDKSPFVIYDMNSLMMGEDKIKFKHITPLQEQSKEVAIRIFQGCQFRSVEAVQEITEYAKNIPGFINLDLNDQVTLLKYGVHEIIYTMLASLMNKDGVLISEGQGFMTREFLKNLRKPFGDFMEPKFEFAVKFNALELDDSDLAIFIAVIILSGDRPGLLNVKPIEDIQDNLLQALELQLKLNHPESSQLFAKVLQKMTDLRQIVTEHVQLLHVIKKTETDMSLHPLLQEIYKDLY

[30] = Bioavailability in monkey (p.o.) at 2.0 mpk; type: ADME, organism-based; settings: cercopithecidae, in vivo, po, 2 mg/kg
[31] = Dose-normalized area under curve in monkey (p.o.) at 2.0 mpk; type: ADME; settings: cercopithecidae, in vivo, po, 2 mg/kg
[32] = Longer half-life in dog (i.v.) at 0.5 mpk; type: ADME, organism-based, Canis lupus familiaris; settings: in vivo, iv, 0.5 mg/kg

## CCCc1cc(Oc2ccc(OC)cc2)ccc1OCCCOc1ccc2c(c1)OC(CC)(C(=O)O)CC2 (stereo unspecified)
[1]
  IC50: 0.63 µM
[2]
  EC50: 4.6 µM
[3]
  IC50: > 15 µM
[4]
  EC50: 0.89 µM
[5]
  IC50: > 50 µM

## CC[C@@]1(C(=O)O)CCc2ccc(OCCCOc3ccc(Oc4ccc(F)cc4)cc3Cl)cc2O1
[5]
  IC50: > 50 µM

## CCCc1cc(Oc2ccccc2)ccc1OCCCOc1ccc2c(c1)CCC(C(=O)O)O2 (stereo unspecified)
[1]
  IC50: 2.9 µM
[3]
  IC50: > 15 µM
[6]
  EC50: Not Active
[4]
  EC50: 2.8 µM
[5]
  IC50: > 15 µM

## CCCc1cc(Oc2ccccc2)ccc1OCCCOc1ccc2c(c1)OC(CC(C)C)(C(=O)O)CC2 (stereo unspecified)
[1]
  IC50: 1.2 µM
[3]
  IC50: 3 µM
[5]
  IC50: 5 µM

## CCCc1cc(Oc2ccccc2)ccc1OCCCCOc1ccc2c(c1)OC(C(=O)O)CC2 (stereo unspecified)
[1]
  IC50: 1.8 µM
[2]
  EC50: 6.3 µM
[3]
  IC50: > 15 µM
[4]
  EC50: 1.6 µM
[5]
  IC50: > 15 µM

## CCCc1cc(Oc2ccccc2)ccc1OCCCCOc1ccc2c(c1)OC(C)(C(=O)O)CC2 (stereo unspecified)
[1]
  IC50: 5.1 µM
[2]
  EC50: 5.2 µM
[3]
  IC50: > 15 µM
[4]
  EC50: 3.6 µM
[5]
  IC50: > 50 µM

## CCCc1cc(Oc2ccccc2)ccc1OCCCOc1ccc2c(c1)OC(CC)(C(=O)O)CC2 (stereo unspecified)
[1]
  IC50: 0.44 µM
[2]
  EC50: 0.03 µM
[3]
  IC50: 0.36 µM
[4]
  EC50: 1 µM
[5]
  IC50: > 50 µM

## CCCc1cc(Oc2ccc(Cl)cc2)ccc1OCCCOc1ccc2c(c1)OC(CC)(C(=O)O)CC2 (stereo unspecified)
[1]
  IC50: 1.4 µM
[2]
  EC50: 0.21 µM
[3]
  IC50: 4 µM
[4]
  EC50: 0.67 µM
[5]
  IC50: > 50 µM

## CCCc1cc(Oc2ccc(F)cc2)ccc1OCCCOc1ccc2c(c1)OC(CC)(C(=O)O)CC2 (stereo unspecified)
[1]
  IC50: 1.2 µM
[2]
  EC50: 0.01 µM
[3]
  IC50: 0.97 µM
[4]
  EC50: 0.75 µM
[5]
  IC50: > 50 µM

## CC1(C(=O)O)CCc2ccc(OCCCOc3ccc(Oc4ccccc4)cc3Cl)cc2O1 (stereo unspecified)
[7]
  EC50: 0.36 µM
[1]
  IC50: 1.4 µM
[2]
  EC50: 0.08 µM
[3]
  IC50: 0.12 µM
[5]
  IC50: > 15 µM

## CC[C@]1(C(=O)O)CCc2ccc(OCCCOc3ccc(Oc4ccc(F)cc4)cc3Cl)cc2O1
[8]
  bioavailability: 48%
Canis familiaris [9]
  nAUC: 9.2 µM·h
Canis familiaris [10]
  Change: -31.6%
[11]
  Clp: 8.6 mL/min/kg
Cricetinae gen. sp. [12]
  Change: -27%
Cricetinae gen. sp. [13]
  Activity: 222 mg/dL
Cricetinae gen. sp. [14]
  Change: -40%
Cricetinae gen. sp. [15]
  Change: -48%
Mesocricetus auratus
  Activity: 85 mg/dL
[16]
  bioavailability: 92%
Canis familiaris [17]
  Clp: 3.5 mL/min/kg
Rattus norvegicus [18]
  Clp: 3.4 mL/min/kg
Cricetinae gen. sp. [19]
  Change: -21%
Canis familiaris [20]
  Change: -23.3%
[21]
  EC50: 0.14 µM
Rattus norvegicus [22]
  nAUC: 10 µM·h
[23]
  half-life: 3.7 h
[24]
  half-life: 4.6 h
Cricetinae gen. sp. [25]
  Activity: 65 mg/dL
[5]
  IC50: > 15 µM
Cricetinae gen. sp. [26]
  Activity: 159 mg/dL
Rattus norvegicus [27]
  nAUC: 4.8 µM·h
[28]
  half-life: 3.5 h
[29]
  EC50: 0.15 µM
[30]
  bioavailability: 43%
[31]
  nAUC: 1.7 µM·h
[32]
  half-life: 10 h
